In patent US9341616B2, “Sweet taste receptor chimeric proteins and use thereof” (AJINOMOTO CO., INC., priority 2014, dated 2016):
Like-named read-outs stand apart in the source and are kept apart here. Residues, ends and D or L forms follow the SMILES beside them.

Assays:
hT1R2/T1R3mosaicA = hT1R2/T1R3mosaicA (UniProt Q8TE23+Q925D8, A12W/A31M/A558R/A588V/A645S/A698V/A702T/A793V/A807V/C582S/C678S/E16H/E725V/F14L/F29L/F541I/F612A/F622V/F695L/H728R/I36V/I60P/I617V/I706V/I740A/I803L/K30R/K555R/K565R/K818R/K827G/L17P/L560F/L684P/L735F/L823M/L825Q/M19T/M644L/M744T/N52R/N547G/N58S/N63T/N675D/P545F/P561R/P564S/P61V/Q32K/Q53S/Q550E/Q56R/Q611L/Q757R/Q795R/Q831P/R632Q/S22P/S45E/S576L/S595F/S610P/S635P/S637R/S679G/S717H/T46A/T50G/T542A/T663I/T694M/T813A/V573A/V584A/V718M/V723A/V729T/V738A/V805L/V812A/V821L/W599R/W676R/W824R/Y680C/Y794L); details: HEK293E cells
Sequence of hT1R2/T1R3mosaicA (Q8TE23 20-839, stated change not applied): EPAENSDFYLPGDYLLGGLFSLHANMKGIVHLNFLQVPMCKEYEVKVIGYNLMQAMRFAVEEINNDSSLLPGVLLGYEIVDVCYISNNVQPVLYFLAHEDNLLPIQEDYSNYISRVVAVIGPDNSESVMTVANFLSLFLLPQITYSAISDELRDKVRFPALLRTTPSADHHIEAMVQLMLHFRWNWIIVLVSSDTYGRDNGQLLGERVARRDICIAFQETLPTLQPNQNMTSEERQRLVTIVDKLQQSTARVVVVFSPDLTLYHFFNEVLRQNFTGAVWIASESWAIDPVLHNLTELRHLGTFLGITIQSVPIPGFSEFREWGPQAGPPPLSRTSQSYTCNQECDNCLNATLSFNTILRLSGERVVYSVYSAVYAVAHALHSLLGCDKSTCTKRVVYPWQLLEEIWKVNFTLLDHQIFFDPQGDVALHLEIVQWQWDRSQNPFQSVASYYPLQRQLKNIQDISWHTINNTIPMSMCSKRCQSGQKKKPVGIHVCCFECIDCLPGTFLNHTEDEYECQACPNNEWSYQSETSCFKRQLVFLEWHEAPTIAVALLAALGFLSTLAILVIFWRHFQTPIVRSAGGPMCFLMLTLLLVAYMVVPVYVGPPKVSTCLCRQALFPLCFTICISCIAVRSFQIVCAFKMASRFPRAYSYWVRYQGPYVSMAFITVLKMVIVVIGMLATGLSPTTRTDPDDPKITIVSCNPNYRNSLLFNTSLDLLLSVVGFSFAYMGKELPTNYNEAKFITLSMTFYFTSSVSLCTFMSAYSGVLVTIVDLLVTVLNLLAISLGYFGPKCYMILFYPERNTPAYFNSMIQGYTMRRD
Sequence of hT1R2/T1R3mosaicA (Q925D8 with tags, fused parts or gaps with the stated changes limits assumed): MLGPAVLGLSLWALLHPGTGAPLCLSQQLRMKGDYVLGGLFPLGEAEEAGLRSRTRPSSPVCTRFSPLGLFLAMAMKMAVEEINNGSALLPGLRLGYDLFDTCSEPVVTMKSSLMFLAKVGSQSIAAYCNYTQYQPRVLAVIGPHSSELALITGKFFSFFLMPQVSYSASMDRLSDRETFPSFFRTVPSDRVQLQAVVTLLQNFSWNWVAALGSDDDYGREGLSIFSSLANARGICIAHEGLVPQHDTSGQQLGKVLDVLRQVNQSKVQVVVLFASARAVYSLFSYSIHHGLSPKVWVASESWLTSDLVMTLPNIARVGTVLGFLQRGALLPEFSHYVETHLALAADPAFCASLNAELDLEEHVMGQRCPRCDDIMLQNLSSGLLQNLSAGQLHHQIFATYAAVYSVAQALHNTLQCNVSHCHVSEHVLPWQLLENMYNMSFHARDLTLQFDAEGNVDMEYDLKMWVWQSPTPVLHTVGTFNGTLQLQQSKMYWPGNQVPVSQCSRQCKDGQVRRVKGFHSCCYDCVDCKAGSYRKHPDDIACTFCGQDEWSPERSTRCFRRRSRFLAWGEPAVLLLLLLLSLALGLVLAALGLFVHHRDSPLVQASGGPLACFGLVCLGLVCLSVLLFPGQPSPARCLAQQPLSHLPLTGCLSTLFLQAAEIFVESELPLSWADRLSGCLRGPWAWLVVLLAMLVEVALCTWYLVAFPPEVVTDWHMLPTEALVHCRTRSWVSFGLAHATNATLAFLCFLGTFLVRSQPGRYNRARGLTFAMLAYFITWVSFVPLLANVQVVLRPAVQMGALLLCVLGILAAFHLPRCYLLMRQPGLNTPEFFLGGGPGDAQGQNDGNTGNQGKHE
Method: (§1) The HEK293E cells maintained by using the DMEM/Ham's F-12 medium (Nakarai Tesque) containing 10% fetal bovine serum ([…]) and 1% Pen Strep (GIBCO) were washed with D-PBS(−) (Nakarai Tesque), and collected from the flask by using 0.25% Trypsin EDTA (GIBCO). The cells were centrifuged (1,200 rpm, 3 minutes), and after the supernatant was removed, suspended in 5% FBS DMEM/Ham's F-12 at a density of 0.75×10^7 cell/ml. This suspension (10 ml) was put into a […] (IWAKI), and culture was performed overnight (37° C., 5% CO2). On the next day, the medium was exchanged with Opti-MEM (30 ml, Invitrogen, Life Technologies), a sweet taste receptor gene mixture (Gα15-trans48LD gene, various kinds of T1R2 chimeric genes, and various kinds of T1R3 chimeric genes, 63.8 μg in total) prepared by using Opti-MEM and Lipofectamin 2000 (Invitrogen, Life Technologies) was slowly added to the cell suspension, and incubation was performed (37° C., 5% CO2) for 6 hours to attain gene transfer.
(§2) After the gene transfer, the cells were washed with D-PBS(−), then removed from the flask by using 0.25% Trypsin EDTA (GIBCO), and collected. After the cell number was counted, the cells were suspended in the 5% FBS DMEM medium (2.78 mM glucose, GIBCO) at a density of 0.5×10^6 cell/ml. This cell suspension was put into wells of D-Lysine coat 96-well plate (BD bioscience) in such a volume that the cell count is 7.0×10^4 cells/well, and the cells were cultured overnight.
(§3) After the culture, all the medium of the 96 wells were discarded. 200 μl of the staining solution for measurement of intracellular calcium ion′ Calcium Assay Kit Express (Molecular Device), diluted 80 times with an assay buffer (20 mM HEPES, 146 mM NaCl, 1 mM MgSO4, 1.39 mM glucose, 1 mM CaC12, 2.5 mM Probenecid, 0.05% bovine serum albumin) was added to each well, and the plate was left standing at 37° C. for 30 minutes and at room temperature for 45 minutes to perform staining. After the staining, 50 μl of a solution of stimulant (sweet taste substance) prepared with the assay buffer was added to each well, and the fluorescence value was measured for 120 seconds after the stimulation by using FDSSμEELL (Hamamatsu Photonics). By measuring the fluorescence value (Ex. 480 nm, Em. 540 nm) before and after the stimulation, the change of the intracellular free calcium ion concentration caused by addition of the stimulant via a sweet taste receptor was quantitatively investigated. The measurement and analysis of the fluorescence value was performed by using the software attached to FDSSμEELL (FDSS7000EX), and ΔF/F value was calculated in accordance with the following equation, and used for the evaluation. ΔF/F=(Maximum fluorescence value after stimulation−Minimum fluorescence value after stimulation)/(Fluorescence value before stimulation)
(§4) Furthermore, by using the ΔF/F values obtained when each sweet taste substance was added, the S/N ratio was calculated. Specifically, the S/N value was calculated by using the minimum value of ΔF/F obtained when each substance was added at various concentrations as noise (N) value, and the similarly obtained maximum value of ΔF/F as the signal (S) value, and used as an index for sensitivity of the measurement of the activity of each receptor. That is, a higher S/N value means a higher sensitivity for detection of an interaction of a sweet taste receptor and a test substance, which makes it easier to detect stimulation with a sweet taste substance or sweet taste-regulating substance of a lower concentration.
(§5) The sweet taste substances used as the stimulating substance are acesulfame potassium (Tokyo Kasei Kogyo), sodium saccharin (WAKO), sucralose (SIGMA), sucrose (WAKO), and neotame (SIGMA), as well as aspartame, advantame, and SC-45647 ([3-[(S)-1-phenylethyl]-2-(4-cyanophenyl)guanidino]acetic acid, which were all synthesized in-house.

h-mT1R2-471/mT1R3 = h-mT1R2-471/mT1R3 (UniProt Q8TE23+Q925D8, A537S/A564V/A568V/A570T/A649T/A658V/A782V/D480N/E530V/E534N/E542M/E548N/F525Y/F665L/G696N/G701T/H484Y/H528R/I481V/I486P/I490V/I510L/I518V/I595M/I643V/I645L/I692L/I695G/K476T/K504M/K626T/K714N/L471T/L521P/L571I/L578I/L610P/L631F/L636F/L639V/L688V/L702I/L734M/L800F/M492I/M616G/M682V/M690V/M748V/N477Y/N540G/N541S/N721H/P638T/P824S/Q472E/Q474R/Q479S/Q536L/Q546K/Q555R/Q676H/R473T/R498S/R667S/S501P/S547N/S550A/S628F/S663R/S670G/S681F/S703N/S727G/S784D/S804G/T529S/T549I/T609V/T629S/T642S/T705I/T706G/T716I/V508I/V512P/V557A/V585L/V613L/V617M/V673M/V687A/V691A/V694A/V718L/V741L/V774I/V791M/Y533F/Y615F/Y671F/Y769S/Y783H); details: Table 4; genes h-mT471/mT3 (h-mT1R2-471, mT1R3); HEK293E cells
Sequence of h-mT1R2-471/mT1R3 (Q8TE23 with tags, fused parts or gaps with the stated changes limits assumed): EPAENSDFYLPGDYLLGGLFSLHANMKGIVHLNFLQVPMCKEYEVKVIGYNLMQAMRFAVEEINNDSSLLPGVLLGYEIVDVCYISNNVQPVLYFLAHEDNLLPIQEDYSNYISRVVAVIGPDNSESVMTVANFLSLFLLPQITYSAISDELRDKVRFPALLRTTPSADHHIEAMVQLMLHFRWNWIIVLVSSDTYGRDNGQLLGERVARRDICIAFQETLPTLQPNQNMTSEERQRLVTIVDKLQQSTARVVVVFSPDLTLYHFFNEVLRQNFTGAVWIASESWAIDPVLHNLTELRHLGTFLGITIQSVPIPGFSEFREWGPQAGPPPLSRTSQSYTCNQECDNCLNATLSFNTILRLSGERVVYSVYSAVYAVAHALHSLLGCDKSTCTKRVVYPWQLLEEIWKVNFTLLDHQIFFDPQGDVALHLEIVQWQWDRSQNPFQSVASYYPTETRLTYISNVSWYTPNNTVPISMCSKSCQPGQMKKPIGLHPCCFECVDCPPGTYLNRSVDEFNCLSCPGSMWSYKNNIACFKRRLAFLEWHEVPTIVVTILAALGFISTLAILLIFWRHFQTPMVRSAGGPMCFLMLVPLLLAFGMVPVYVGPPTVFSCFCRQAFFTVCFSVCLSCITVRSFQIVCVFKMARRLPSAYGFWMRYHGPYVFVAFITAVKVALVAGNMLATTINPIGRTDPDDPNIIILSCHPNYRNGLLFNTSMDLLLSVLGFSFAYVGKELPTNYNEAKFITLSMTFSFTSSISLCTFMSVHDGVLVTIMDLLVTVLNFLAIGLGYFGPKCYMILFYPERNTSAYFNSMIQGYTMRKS
Sequence of h-mT1R2-471/mT1R3 (Q925D8 21-858, stated change not applied): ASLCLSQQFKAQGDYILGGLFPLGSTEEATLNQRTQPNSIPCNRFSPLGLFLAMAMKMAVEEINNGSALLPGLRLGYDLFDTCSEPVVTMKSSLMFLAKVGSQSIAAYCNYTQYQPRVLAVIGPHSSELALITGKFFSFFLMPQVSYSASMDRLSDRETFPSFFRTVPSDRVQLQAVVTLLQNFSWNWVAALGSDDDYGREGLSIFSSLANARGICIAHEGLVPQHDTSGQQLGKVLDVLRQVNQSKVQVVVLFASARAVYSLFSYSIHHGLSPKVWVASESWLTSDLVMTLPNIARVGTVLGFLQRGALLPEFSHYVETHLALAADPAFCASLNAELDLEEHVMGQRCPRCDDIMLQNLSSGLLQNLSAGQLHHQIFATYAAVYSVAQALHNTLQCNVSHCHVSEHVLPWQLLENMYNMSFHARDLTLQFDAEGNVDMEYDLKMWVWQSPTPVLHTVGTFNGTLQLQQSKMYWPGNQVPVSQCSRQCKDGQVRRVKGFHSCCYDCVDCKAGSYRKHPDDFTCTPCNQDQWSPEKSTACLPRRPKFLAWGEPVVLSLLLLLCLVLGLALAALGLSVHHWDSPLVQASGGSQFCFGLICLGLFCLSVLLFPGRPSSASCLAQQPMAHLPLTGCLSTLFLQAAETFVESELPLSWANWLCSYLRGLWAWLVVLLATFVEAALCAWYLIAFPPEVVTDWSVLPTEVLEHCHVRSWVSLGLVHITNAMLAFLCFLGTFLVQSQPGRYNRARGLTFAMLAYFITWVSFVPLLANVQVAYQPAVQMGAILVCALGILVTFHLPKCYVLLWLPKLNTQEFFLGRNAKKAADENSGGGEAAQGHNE
Method: as §1, §2, §3, §4, §5

[1] = Table 5, genes hT2/T3mA (hT1R2, T1R3mA)
[2] = Table 6, genes hT2/T1R3mA (hT1R2, T1R3mA)

SMILES	S/N (hT1R2/T1R3mosaicA; [1])	S/N (hT1R2/T1R3mosaicA; [2])	S/N (h-mT1R2-471/mT1R3)
CC1=CC(=O)NS(=O)(=O)O1 [Acesulfame K, acesulfame potassium]	3.7	3.7	3.1
COC(=O)[C@H](Cc1ccccc1)NC(=O)[C@H](CC(=O)O)NCCCc1ccc(OC)c(O)c1 [Advantame, advantame]	7.6	7.5	5.5
COC(=O)[C@H](Cc1ccccc1)NC(=O)[C@@H](N)CC(=O)O [Aspartame, aspartame] (HELM PEPTIDE1{D.F.[CO[*:1]]}$$$$V2.0)	4.4	3.5	4.6
COc1ccc(CCC(=O)c2c(O)cc(O[C@@H]3O[C@H](CO)[C@@H](O)[C@H](O)[C@H]3O[C@@H]3O[C@@H](C)[C@H](O)[C@@H](O)[C@H]3O)cc2O)cc1O [NHDC, neohesperidin dihydrochalcone]	2.9	3.8	–
COC(=O)[C@H](Cc1ccccc1)NC(=O)[C@H](CC(=O)O)NCCC(C)(C)C [Neotame, neotame]	5.7	6.5	4.4
C[C@H](NC(=Nc1ccc(C#N)cc1)NCC(=O)O)c1ccccc1 [SC-45647, [3-[(S)-1-phenylethyl]-2-(4-cyanophenyl)guanidino]acetic acid]	5.9	6.8	4.2
O=C1NS(=O)(=O)c2ccccc21.[Na] [Saccharin Na, sodium saccharin]	4.3	4.2	3.6
OC[C@H]1O[C@H](O[C@]2(CCl)O[C@H](CCl)[C@@H](O)[C@@H]2O)[C@H](O)[C@@H](O)[C@H]1Cl [Sucralose, sucralose]	6.0	5.9	4.6
OC[C@H]1O[C@@](CO)(O[C@H]2O[C@H](CO)[C@@H](O)[C@H](O)[C@H]2O)[C@@H](O)[C@@H]1O [Sucrose, sucrose]	2.6	2.3	3.5
